From patent US20210060058A1, “COMPOSITIONS AND METHODS FOR TREATING HYDROGEN SULFIDE-MEDIATED HYPERDYNAMIC CIRCULATION” (priority 2019, published 2021) come the findings set out here.

In series [1] the test system is Desulfovibrio vulgaris (DSV). The note with it: 14 hours. The text has this:
FIG. 8. Effect of molybdate on growth of Desulfovibrio vulgaris (DSV) on a culture plate.

Series [2] concerns Desulfovibrio vulgaris (DSV). Put plainly: Production of hydrogen sulfide gas by DSV in the culture system. It is filed as cell-based. The note with it: molybdate at 10 μM, 50 μM, and 1 mM; dose dependent. The text has this:
FIG. 9. Effect of molybdate on the production of hydrogen sulfide gas measured in parts per billion (ppb) in the culture system.

For another series, the system named is rats. Put plainly: Portal vein flow during 20-minute jejunal NaHS infusion in rats fed MgO diet. It is filed as in vivo, rat. The text has this: FIG. 7. Portal venous flow recordings over 20-minute infusion of NaHS in two groups: Standard-diet-fed rats and Magnesium Oxide (MgO)-fed rats. Vehicle group shown as control; standard diet fed rats followed by water infusion. All measurements shown as percent change from baseline to accommodate for compensate for variation in baseline data; data shown as percent change±SEM. Baseline flow measurements recorded and average (shown as time 0) for each group. […] No difference is noted between MgO diet group and vehicle.
Rats were divided into three groups: Magnsium Oxide (MgO) diet, 500 mg MgO per 100 g chow, with NaHS infusion into small intestine (jejunim); standard diet with NaHS infusion into jejunum; and standard diet with control (vehicle) infusion into jejunim. Diets were administered for three days total. At the end of diet treatment, rats underwent surgery to measure porta vein flow before and after infusion of small intestine (jejunum) sodium hydrosulfide (NaHS), a hydrogen sulfide donor. Portal vein blood flow was recorded at baseline for 10 minutes and throughout 20-minute infusion periods. Data reported as percent change from baseline; infusion started at minute 1 of data shown. Blood flow data are reported as mean percent baseline change+/−SEM and were compared by 2-way RM-ANOVA.

Read-outs that look alike come from different tables or passages of the source.

Turning to `[O]=[Mo](=[O])([O-])[O-]` [molybdate], the “Growth of DSV” value in series [1] (molybdate at 10 μM, 50 μM, and 1 mM, dose-dependent) was “suppressed the growth”; in series [1] (molybdate at 1 mM), “completely suppressing the growth”. In addition, the “Generation of H2S gas by DSV (ppb)” value in series [2] was “suppressed the generation of H2S gas”.

Regarding `[O]=[Mg]` [MgO, Magnesium Oxide], the “Portal venous flow (percent change from baseline), MgO diet group versus vehicle” value with rats (500 mg MgO per 100 g chow for three days, 20-minute NaHS infusion, vehicle = standard diet, water infusion) is “No difference”. The “Portal vein blood flow, MgO diet group versus other two groups” value with rats (at minutes 20 of infusion) was “Statistical significant difference”.
